The record followed here is PubChem BioAssay AID179 (DTP/NCI, 2004).

pEC50, pIC50: −log10 of the molar value. The source made the active and inactive calls.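 Rule for the calls: active = compounds giving half or more protection of infected cells from virus-caused growth loss, again on retest; inactive = the rest.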

In this experiment the test system is CEM cells HIV-1 protection, formazan growth assay. Kind of experiment: NCI AIDS Antiviral Assay. The note with it: for pIC50: measured here: growth of uninfected CEM cells. In short, it runs like this:
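Protection of CEM cells against HIV-1 was scored from cell growth (soluble formazan) across five concentrations, with parallel uninfected cells. Lack of protection may reflect toxicity.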

In the case of `NCCCN(CCCCN(CCCN)Cc1ccc2ccccc2c1)Cc1ccc2ccccc2c1`, the pEC50 (commonly the negative decadic logarithm of the EC50, by convention in mol/L) was less than 3.70 and the pIC50 (in general, −log10 of the IC50, conventionally taken in molar units) was 5.97.

Regarding `CCOC(=O)N/N=C(\CC)OCC`, the pEC50 was less than 3.70 and the pIC50 was less than 3.70.

With `N/C(=N\NS(=O)(=O)c1ccccc1)Oc1ccc(Cl)cc1`, the pEC50 is less than 3.40 and the pIC50 was 3.47.

`CC(C)=C1C(=O)NC(=O)C1C(N)=O` (stereo not given): the pEC50 is less than 3.70 and the pIC50 is less than 3.70.

With `COC(=O)C(Cc1c[nH]c2ccccc12)NP(=O)(O)OCC1OC(n2cc(F)c(=O)[nH]c2=O)CC1O` (stereo not given), the pEC50 is less than 3.70 and the negative logarithm of the IC50 (pIC50) is less than 3.70.

With `O=C(/C=C/c1ccc(OCCCOc2ccc(/C=C/C(=O)c3ccc(Cl)cc3)cc2)cc1)c1ccc(Cl)cc1`, the pEC50 was less than 4.89 and the pIC50 was less than 4.89.

Regarding `N#CCC(=O)NC1C2CC3CC(C2)CC1C3` (stereo not given), the pEC50 was less than 3.64 and the pIC50 is 4.46.

`O=[N+]([O-])c1ccccc1S(=O)NCc1c(Cl)cccc1Cl` (stereo not given): the pEC50 was less than 3.70 and the pIC50 is less than 3.70.

For the compound `O=c1c(O)c(-c2ccccc2)oc2ccccc12`, the pEC50 was less than 4.03 and the pIC50 was 4.73.

On to `CC1CN=C(c2ccc(NC(=O)c3ccc(C(=O)Nc4ccc(C5=NCC(C)CN5)cc4)cc3)cc2)NC1` (stereo not given), for which the pEC50 is less than 3.70 and the pIC50 is 4.60.

With `NC(Cc1ccccc1)C(=O)OCN1C(=O)C2C3C=CC(C2C1=O)C1C2C(=O)N(COC(=O)C(N)Cc4ccccc4)C(=O)C2C31` (stereo not given), the pEC50 is less than 3.70 and the pIC50 is 4.50.

In the case of `COc1cc(/C=C/C(=O)C(C)(C)C)cc(OC)c1OC`, the pEC50 was less than 3.75 and the pIC50 is 4.94.

With `O=C(N/N=C/c1ccc(O)cc1)c1ccc(OCc2nc3ccccc3[nH]2)cc1`, the pEC50 is less than 3.70 and the negative-log IC50 (pIC50) was less than 3.70.

For `Cc1sc(N=Nc2c(O)[nH]c3ccccc23)nc1-c1ccccc1`, the pEC50 was less than 3.70 and the pIC50 is 4.36.

Regarding `CSC1=N/C(=C\c2cccs2)C(=O)N1CN1CCCCC1`, the pEC50 is less than 3.70 and the pIC50 was less than 3.70.

As for `COc1ccc(C=C(C(=O)O)C(=O)O)cc1`, the pEC50 is less than 2.95 and the pIC50 is less than 2.95.

Regarding `Cc1ccc2c(c1)C1(C)OC(CC(N)C1O)O2` (stereo not given), the outcome was inactive.

As for `CCn1c(=O)nc2n(-c3ccccc3)c3ccccc3nc-2c1=O`, the result was inactive.

`CCCCCCCCCCCCCCCCCCNC(=O)OCC(CNS(=O)(=O)CCC[n+]1cccc2ccccc21)COC` (stereo not given): the pEC50 is less than 3.70 and the pIC50 is 6.17.

In the case of `CCC1(O)CN(CCOC)[C@H]2C[C@@H]1C(=O)c1[nH]c3ccccc3c12` (stereo not given in full), the pEC50 is less than 3.70 and the pIC50 is less than 3.70.

As to `NC(=S)N/N=c1\cc(C(=O)Nc2ccc([N+](=O)[O-])cc2[N+](=O)[O-])oc2ccccc12`, the pEC50 is less than 4.22 and the pIC50 is less than 4.22.

As to `C[Si](C)(C)/C(Br)=C\CCN1C(=O)CCC1=O`, the outcome was inactive.

Consider `CC1(C)CNC[C@@](C)(OCCO)C(=O)[N-]C(C)(C)CNC[C@@](C)(OCCO)C(=O)[N-]1.[Ni+2]`, for which the pEC50 was less than 3.70 and the pIC50 was less than 3.70.

On to `COc1ccc2c(c1)OC[C@@H]1c3cc(O)c(OCc4ccccc4)cc3O[C@H]21`, for which the negative-log EC50 (pEC50) is 5.04 and the negative-log IC50 (pIC50) is 4.62.

For the compound `COc1ccc(-c2c(N)n(-c3cccc(C(=O)O)c3)c(=O)c3cc([N+](=O)[O-])ccc23)cc1`, the pEC50 was less than 3.70 and the negative logarithm of the IC50 (pIC50) is 3.89.

On to `O=c1cc(N2CCN(c3cc(=O)n4ccccc4n3)CC2)oc2ccccc12`, for which the pEC50 was less than 3.70 and the pIC50 is less than 3.70.

Consider `COc1cc(CCCl)c(CC2=NCCc3cc(OC)c(OC)cc32)cc1OC`, for which the pEC50 is less than 3.70 and the pIC50 is 4.50.

In the case of `N#Cc1cc2c(n(C3OC(CO)C(O)C(O)C3O)c1=S)CCCC2` (stereo not given), the pEC50 is less than 3.70 and the pIC50 was less than 3.70.

Consider `CNC(=S)N/N=C(\C)c1cc(OC)c(OC)cc1O`, for which the pEC50 was less than 3.70 and the pIC50 is less than 3.70.

Take `Cc1cc2ccc(N)nc2[nH]c1=O`: the pEC50 is less than 3.70 and the pIC50 was less than 3.70.

Regarding `NC(=S=O)C(F)(F)C(F)(F)C(F)(F)F`, the pEC50 is less than 3.98 and the negative logarithm of the IC50 (pIC50) was 4.05.

Regarding `C[C@]12CC[C@H](OC(=O)CCC(=O)O)CC1=CC[C@@H]1C2CC[C@@]2(C)C1CC[C@@H]2c1ncc(-c2ccccc2)s1` (stereo not given in full), the pEC50 is less than 5.03 and the pIC50 is less than 5.03.

As to `COc1cc2c(cc1Oc1c(O)c(OC)cc3c1C(C)N(C)CC3)C(C)N(C)CC2` (stereo not given), the pEC50 is less than 3.70 and the pIC50 was less than 3.70.

`CC1CCc2ccccc2O1` (stereo not given): the pEC50 was less than 3.70 and the pIC50 was less than 3.70.

Take `COc1ccc(CC2C(=O)NC(C)C(=O)N(C)C3Cc4ccc(cc4)Oc4cc(ccc4O)CC(C(=O)NC(C)C(=O)NC(C)C(=O)N2C)N(C)C3=O)cc1` (stereo not given): the pEC50 was less than 6.70 and the pIC50 is 7.20.

For `CN(C)C(=NC#N)N(Cc1ccccc1)Cc1ccccc1`, the pEC50 was less than 3.70 and the pIC50 was 3.95.

For `Cc1cc(OCC(=O)N/N=C/C(Br)=C/c2ccccc2)nc(SCC(=O)N/N=C/C(Br)=C/c2ccccc2)n1`, the pEC50 is less than 3.70 and the pIC50 was 4.75.

Take `COC(=O)C(=O)C(C(=O)C(N)=O)c1nc2ccc(C(=O)c3ccccc3)cc2[nH]c1=O` (stereo not given): the pEC50 is less than 4.07 and the negative logarithm of the IC50 (pIC50) is less than 4.07.

Regarding `C(=C/c1nnnn1-c1ccccc1)/Nc1ccccc1`, the pEC50 was less than 3.70 and the pIC50 was 4.58.

With `COC1NC(=O)Oc2c(F)cccc21` (stereo not given), the outcome was inactive.

With `COc1ccc(CNc2cnc3cc(N)ccc3n2)cc1`, the pEC50 is less than 4.17 and the pIC50 is less than 4.17.

For `Cc1ccc2nc3c(Cl)c(C)c(=O)cc-3sc2c1`, the pEC50 is less than 4.87 and the pIC50 is less than 4.87.

For `COc1cc2c(cc1OC)C1C3CCCCC3CCN1CC2` (stereo not given), the pEC50 was less than 3.70 and the negative-log IC50 (pIC50) was 3.86.

Regarding `CC(C)C1CCC(=O)CC1CCCCC1CC(=O)CC1O[Si](C)(C)C(C)(C)C` (stereo not given), the pEC50 was less than 3.70 and the pIC50 is 5.14.

For `O=c1[nH]c2nc3ccccc3c(=O)n2/c1=C/c1cccs1`, the pEC50 was less than 3.70 and the pIC50 is 3.96.

`C=CCCCCCCCCC/C=C1\C[C@H](O)COC1=O`: the pEC50 was less than 4.03 and the pIC50 is less than 4.03.

On to `S=C(N/N=C\c1ccccn1)N/N=C\c1ccccn1`, for which the pEC50 is less than 5.70 and the pIC50 is 6.09.

As to `NC(=O)NCCSC1CCCCC1O` (stereo not given), the pEC50 is less than 3.70 and the negative logarithm of the IC50 (pIC50) was less than 3.70.

In the case of `C=CCOC1=C(OCC=C)C(C2COC(C)(C)O2)OC1=O` (stereo not given), the pEC50 is less than 3.70 and the pIC50 was 4.15.

In the case of `CN(C)CCNC(=O)C(C)(C)Oc1ccc(C(=O)c2ccc(Cl)cc2)cc1Cl`, the pEC50 was less than 3.70 and the pIC50 was 5.02.

For `COc1ccc(N)c(N2C(=O)c3ccccc3C2=O)c1`, the pEC50 is less than 3.70 and the pIC50 is less than 3.70.

For the compound `Cc1[nH]c(-c2ccccc2)c(O)c1C(=O)OC12CC3CC(CC(C3)C1)C2`, the pEC50 is less than 3.70 and the pIC50 is 4.51.
